Assay results taken from US20210228509A1 (Nacuity Pharmaceuticals, Inc., priority 2020, published 2021).

Legend:
[1] = tested on: rats with unilateral 6-OHDA-induced nigral lesion; conditions: cited from earlier work
[2] = tested on: CD-1 mice; conditions: gp120+Tat+METH; cited from earlier work
[3] = tested on: isolated rat lens; test: Inhibition of oxidation of isolated rat lenses (H2O2 cataract model); assay type: cell-based, Wistar rat; conditions: 10 mM, 24 hour incubation, then 0.5 mM H2O2 24 hours; compared to control (FIG. 1)
Protocol: Protocol for inhibition of oxidation of isolated rat lenses. Three-week old Wistar rat eyes were enucleated and lenses micro-dissected in Dulbecco's modified eagle's medium (low glucose) (DMEM-F12). Lenses were handled using only custom-made glass loops to avoid changes in transparency and placed in 1 mL DMEM with 1% penicillin/streptomycin/neomycin. Lenses were placed in a culture incubator set at 37° C./5% CO2 for one hour. Then lenses were imaged under darkfield and brightfield (grid) to ensure they are still transparent before adding vehicle (H20), 10 mM NACA (solution), or 10 mM diNACA (suspension). Lenses were then imaged at a 6-hour time period to ensure transparency was maintained, then incubated for another 18 hours, then imaged again (total 24 hour incubation). Media was collected and fresh media was added to the wells. 0.5 mM H2O2 (warmed at 37 deg C) was added and left for a further 24-hour incubation. Lenses were imaged, media collected, lenses weighed and flash frozen in tared vials and submitted for further analysis

[4] = tested on: healthy human skin explants; conditions: healthy human skin explants exposed to UV-radiation; cited from earlier work
[5] = tested on: J-buthionine-(S,R)-induced cataracts; conditions: in vivo; cited from earlier work
[6] = tested on: olfactory bulbectomized rats; conditions: cited from earlier work
[7] = tested on: blood cells from β-thalassemic patients; conditions: cited from earlier work
[8] = tested on: mouse model of RP; conditions: compared with NAC; cited from earlier work
[9] = tested on: β-thalassemic mice; conditions: intra-peritoneal injection, 150 mg/kg; cited from earlier work
[10] = tested on: isolated porcine lenses; test: Inhibition of oxidation of isolated porcine lenses (H2O2-induced cataract); assay type: cell-based, pigs; conditions: for inhibition of H2O2-induced cataract: 24 hours pre-incubation, then 600 μM H2O2 with glucose oxidase 6 hours (FIG. 2); for efficacy against H2O2-induced cataract relative to NAC: FIG. 2
Protocol: Protocol for inhibition of oxidation of isolated porcine lenses. Fresh eyes from pigs were obtained from Sierra For Medical Science. Lenses were first incubated in medium 199 (Sigma-Aldrich, St. Louis, Mo., USA) and 1% pig serum in a 12-well plate for two hours. At the end of the incubation, lenses were imaged under darkfield microscopy and only clear, transparent lenses were used for further experimentation. Lenses were then pre-incubated with NAC, NACA or diNACA for 24 hours. After pretreatment, lenses were transferred to media containing 600 μM H2O2 which was supplemented with glucose oxidase (GO) for maintaining a constant H2O2 level during further incubation for 6 hours [Wang G M, Raghavachari N, Lou M F. Relationship of protein-glutathione mixed disulfide and thioltransferase in H2O2-induced cataract in cultured pig lens. Exp Eye Res. 1997 May; 64(5):693-700. doi: 10.1006/exer.1996.0251. PMID: 9245898.]. At the end of the 6-hour incubation, lenses were imaged under darkfield microscopy

[11] = tested on: mice treated with 1-methyl-4-phenyl-1,2,3,6,-tetrahydropyridine; conditions: MPTP-treated mice; cited from earlier work
[12] = tested on: sodium selenite-induced cataracts; conditions: in vivo; cited from earlier work
[13] = tested on: rats given chronic intrajugular rotenone; conditions: chronic intrajugular rotenone in rats; cited from earlier work
[14] = tested on: RBCs; conditions: compared with NAC; cited from earlier work
[15] = tested on: human retinal pigment epithelial cells; conditions: cited from earlier work
[16] = molecular target: tyrosinase (Homo sapiens, UniProt P14679); conditions: cited from earlier work
[17] = tested on: human melanocytes; conditions: cited from earlier work
[18] = molecular target: glutamate cysteine ligase (GCL, EC 6.3.2.2); conditions: read-out: Ki, nonallosteric competitive inhibition of GCL; cited from earlier work
[19] = tested on: rabbit eyes; conditions: in vivo; cited from earlier work
[20] = tested on: human cadaver lenses; conditions: in vitro; cited from earlier work
[21] = tested on: patients with presbyopia; conditions: first-in-human trial in presbyopes; cited from earlier work
[22] = humans, oral dose of 600 mg; cited from earlier work
[23] = tested on: RP patients; conditions: oral high dose NAC, cited from earlier work
[24] = tested on: alcohol-preferring rats; conditions: alcohol re-access after deprivation, 60 minutes; untreated 95 to 100 mg/dL; cited from earlier work
[25] = tested on: corneal endothelial cells; conditions: cell culture; cited from earlier work
[26] = tested on: mouse model; conditions: cited from earlier work
[27] = Oral dose study in rat (plasma levels); assay type: in vivo, male Sprague-Dawley rats; conditions: oral gavage diNACA 200 milligrams per kilogram (FIG. 5)
Protocol: DiNACA as a Prodrug to NACA and NAC. Example 1: Oral Dose Study in Rat. An IACUC (Institutional Animal Care and Use Committee)-approved study evaluated diNACA dosed via oral gavage in male Sprague-Dawley rats. diNACA was weighed into individual tubes. The tubes were capped and stored at room temperature overnight. Rats were weighed. An appropriate amount of phosphate buffered saline pH 7.0 was added to each tube to achieve the desired diNACA concentration as a suspension. Blood specimens were collected from the tail vein at specified time points and processed to produce plasma. Plasma specimens were analyzed using a validated liquid chromatographic mass spectrometric procedure (King B; Vance J; Wall G M; Shoup R. Quantitation of free and total N-acetylcysteine amide and its metabolite N-acetylcysteine in human plasma using derivatization and electrospray LC-MS/MS. J Chrom B 2019; 1109:25-36.).

[28] = Topical ocular study in rabbit (NACA in aqueous humor, ocular tolerability); assay type: in vivo, Dutch Belted rabbits
Protocol: Example 2: Topical Ocular Study in Rabbit. An IACUC-approved study evaluated diNACA or NACA topical ocular dosing in rabbit. Ophthalmic formulations were developed containing either 1% diNACA or 1% NACA that were used for repeated topical ocular instillation to Dutch Belted rabbits. Animals were dosed four times a day at approximately 8:00 AM, 11 AM, 2 PM, and 4:00 PM on days 1-6, and once on Day 7 at approximately 8:00 AM, via bilateral topical administration. Ocular tolerability was assessed at baseline and prior to the first daily dose by means of scoring chemosis, discharge, and hyperemia (Draize scoring). Ocular tissue was harvested at necropsy (day 7). A qualified analytical LC-MS method was developed and used to quantitate NACA levels in aqueous humor (AH).

[29] = Intravitreal dose study in rabbit (diNACA implant); assay type: in vivo, Female New Zealand White rabbits
Protocol: Example 3: Intravitreal Dose Study in Rabbit. An IACUC-approved study evaluated intravitreally (IVT) dosed diNACA in rabbit. A standard sterile intravitreal implant containing diNACA was prepared. Female New Zealand White rabbits were administered IVT with a di-NACA implant at a dose of 0.8 mg/eye. One group of animals received IVT placebo implants without any test article. Clinical ophthalmic examinations were performed at baseline and on Days 8 and 23 post-dose. General health observations were performed daily. Body weights were recorded at baseline and prior to termination. Animals were euthanized on Day 8, 15, or 23, and tissue was collected and submitted for bioanalysis. […] Observations of conjunctival bulging, discharge, and minimal hemorrhaging were determined to be related to the injection procedure and resolved in most eyes on the day after dosing.

[30] = vitreous humor (FIG. 6, FIG. 7)

Sequence of tyrosinase (P14679 19-529, species assumed): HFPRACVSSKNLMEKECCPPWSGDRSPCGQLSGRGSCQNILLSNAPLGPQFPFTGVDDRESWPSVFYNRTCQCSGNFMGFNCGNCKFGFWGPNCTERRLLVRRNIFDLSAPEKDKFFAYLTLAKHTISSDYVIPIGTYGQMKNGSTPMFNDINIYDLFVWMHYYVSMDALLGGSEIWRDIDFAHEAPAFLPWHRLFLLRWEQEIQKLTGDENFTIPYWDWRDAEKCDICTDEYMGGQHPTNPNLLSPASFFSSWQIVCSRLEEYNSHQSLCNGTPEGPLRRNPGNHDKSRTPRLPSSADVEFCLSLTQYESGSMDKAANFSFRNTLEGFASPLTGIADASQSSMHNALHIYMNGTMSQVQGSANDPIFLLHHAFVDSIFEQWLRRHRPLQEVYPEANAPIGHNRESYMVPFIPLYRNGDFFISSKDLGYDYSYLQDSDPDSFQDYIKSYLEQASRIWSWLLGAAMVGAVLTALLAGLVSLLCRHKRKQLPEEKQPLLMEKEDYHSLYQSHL

## CC(=O)N[C@@H](CS)C(N)=O
[1]
  amphetamine-induced rotational behaviour: suppressed amphetamine-induced rotational behaviour
[2]
  rescue from oxidative stress (GSH, MDA): significantly rescued the animals from oxidative stress
[3]
  inhibition of oxidative formation of cataract (opacity): inhibit oxidative formation of cataract (opacity)
[4]
  glutathione and NAC in skin: increased glutathione and NAC
[5]
  inhibition of buthionine sulfoximine-induced cataracts: inhibit
[6]
  cocaine-seeking behavior: blocked cocaine-seeking behavior
[7]; both in vitro and in vivo
  reduction of oxidative stress markers in thalassemic cells relative to NAC: superior to NAC
[7]; in vitro treatment
  reactive oxygen species (ROS) of blood cells: reduced their reactive oxygen species (ROS)
  reduced GSH content of RBC, platelets and PMN leukocytes: elevated the reduced GSH content
[8]
  improvement of visual parameters: to a greater extent than NAC
[9]
  parameters of oxidative stress: significantly reduced the parameters of oxidative stress
[10]
  inhibition of H2O2-induced cataract: dose-dependently inhibit H2O2-induced cataract
  efficacy against H2O2-induced cataract relative to NAC: greater efficacy than NAC
[11]
  reduction in striatal dopamine levels: attenuated the reduction in striatal dopamine levels
[12]
  inhibition of sodium selenite-induced cataracts: inhibit
[13]
  dopaminergic neuronal loss: reduced dopaminergic neuronal loss
[14]
  BuOOH-induced intracellular oxidation, thiol depletion and hemoglobin oxidation in RBCs: superior to NAC
[15]
  protection against oxidative stress-induced cellular injury and death: protected against oxidative stress-induced cellular injury and death
[16]
  inhibition of tyrosinase activity: significant inhibition of tyrosinase activity was observed in a dose responsive manner
[17]
  melanin production: inhibited melanin production

## N[C@@H](CCC(=O)N[C@@H](CS)C(=O)NCC(=O)O)C(=O)O [GSH, c-L-glutamyl-L-cysteinyl-glycine]
[18]
  Ki: 2300 µM

## C[N+](C)(C)CCOC(=O)CCCC[C@@H]1CCSS1 [LACE, lipoic acid choline ester]
[19]
  lens softening and deformability: lens softening and an increase in lens deformability
[20]
  lens softening and deformability: lens softening and an increase in lens deformability
[21]
  near visual acuity (DCNVA) improvement compared to placebo: statistically significant

## CC(=O)NC(CS)C(=O)O (stereo not drawn) [NAC, 2-acetamido-3-sulfanylpropanoic acid]
[22]
  plasma half-life: 2.5 h
  time after administration at which no NAC is detectable: 10 to 12 h
[23]; RP patients (n=30), p<0.05
  improvement of visual acuity: 2-5 letters
[23]; RP patients
  aqueous humor concentrations of NAC: increased aqueous humor concentrations of NAC
[24]
  reduction of relapse-drinking blood alcohol levels: 60%
[25]
  corneal endothelial survival: increased corneal endothelial survival
[10]
  inhibition of H2O2-induced cataract: dose-dependently inhibit H2O2-induced cataract
[26]
  corneal endothelial survival: increased corneal endothelial survival

## CC(=O)Oc1ccccc1C(=O)O [aspirin]
[24]
  reduction of relapse-drinking blood alcohol levels: 60%

## CC(=O)NC(CSSCC(NC(C)=O)C(N)=O)C(N)=O [diNACA, (2R,2R′)-3,3′-disulfanediyl bis(2-acetamidopropanamide)]
[3]
  inhibition of oxidative formation of cataract (opacity): inhibit oxidative formation of cataract (opacity)
[4]
  glutathione and NAC in skin: increased glutathione and NAC
[27]
  bioavailability after oral administration: bioavailable
  levels in rat plasma after oral diNACA: significant levels of diNACA, NACA and NAC
[28]; topical ocular dosing
  penetration into the eye (aqueous humor): penetrates the eye
[28]; topical ocular dosing of 1% diNACA
  prodrug delivery of NACA to aqueous humor: served as a prodrug to deliver NACA to the AH
[10]
  inhibition of H2O2-induced cataract: dose-dependently inhibit H2O2-induced cataract
  efficacy against H2O2-induced cataract relative to NAC: greater efficacy than NAC
[29]; IVT implant 0.8 mg/eye
  effects on general, non-ocular health or on body weights: No serious adverse effects
  ocular findings on the day of dosing: minimal ocular findings
[29]; IVT implant 0.8 mg/eye, up to Day 23
  tolerability of IVT delivery: generally well tolerated
[29]; [30]
  elution into vitreous humor from IVT implant: eluted into the VH
  metabolites in vitreous humor after diNACA IVT implant: presence of NACA and significant concentrations of NAC in the VH
[16]
  inhibition of tyrosinase activity: significant inhibition of tyrosinase activity was observed in a dose responsive manner
[17]
  melanin production: inhibited melanin production
